The source of these data is article PMC4911353, “Pharmacologic Inhibition of Host Phosphodiesterase-4 Improves Isoniazid-Mediated Clearance of Mycobacterium tuberculosis” (Frontiers in Immunology, 2016).

One test concerns Pde4. Kind of test: qPCR of host Pde4 gene expression in Mtb-infected mouse lungs. Conditions: 14 days of treatment (28 days postinfection). It counts as in vivo, mice. Here is the method: Total lung RNA (200 ng) was reverse-transcribed using Sprint RT kit (Clontech, CA, USA); 10 ng of cDNA were used for quantitative real-time PCR (qPCR), with Brilliant II SYBR master mix (Agilent Technologies, CA, USA) and gene-specific primers in a Stratagene Mx3005P instrument (Agilent Technologies, CA, USA). ROX was included in each reaction as an internal control. The qPCR assay was performed using four mouse samples in duplicate per group; the data were analyzed using MxPro Software (Agilent Technologies, CA, USA). Transcript levels of Gapdh were used as a reference against the test genes. Fold change in gene expression was calculated using the formula 2^−ΔΔCt, where ΔCt is the difference in threshold cycle (Ct) between the target gene and Gapdh; and ΔΔCt is the […] between untreated and CC-11050-treated samples. Primers were designed based on nucleotide sequences obtained from PrimerBank.^3

The subject of the next test is Mtb-infected mouse lungs. Kind of test: Genome-wide lung transcriptome (microarray, IPA network/GO analysis) of Mtb-infected mice. The note with it: TNF-a regulon network. In kind it is in vivo.

In the case of `CCOc1cc([C@@H](CS(C)(=O)=O)N2Cc3cccc(NC(=O)C4CC4)c3C2=O)ccc1OC` [CC-11050, N-[2-[(1S)-1-(3-ethoxy-4-methoxyphenyl)-2-(methylsulfonyl)ethyl]-2,3-dihydro-3-oxo-1H-isoindol-4-yl]-(9Cl) cyclopropanecarboxamide], the “Pde4Bv3 (Pde4B variant 3) expression in lungs versus Mtb-infected untreated” value in the test on Pde4 is listed as “No significant change”. In the test with Mtb-infected mouse lungs, this compound returned an Ins1 expression of 0.
